Tests used:
[1] = molecular target: T1, cannabinoid receptor 1 (CB1R) (Homo sapiens, UniProt P21554); experiment: cAMP production suppression in CHO cells over-expressing CB1R (HTRF cAMP assay, forskolin-induced); format: cell-based; conditions: for concentration of cAMP: 0-50 μM compound, 10 μM forskolin, FIG. 1; for Modulation: Target CB1R
T1 construct: host or cells: CHO cells over-expressing CB1R
From the text: cAMP production suppression efficacy by agonistic action of the synthesized materials was confirmed using CHO cells in which cannabinoid receptor 1 (CB1R) was over-expressed.
The CHO cells in which the cannabinoid receptor 1 (CB1R) was over-expressed were purchased from Chantest, and cultured in an F-12 medium (Gibco) containing 10% fetal bovine serum (FBS, Gibco). In order to conform an agonistic activity of a ceramide derivative compounds according to the present invention on the cannabinoid receptor, the cells were plated in a 96-well dish, cultured for 24 hours, and then, treated at concentrations of 0, 0.781, 1.562, 3.125, 6.25, 12.5, 25, and 50 μM (0.1% DMSO in PBS). The cells were treated with 10 μM Forskolin (Sigma), thereby inducing cAMP production by adenylyl cyclase in the cells. A concentration of cAMP in the cells was measured using a HTRF cAMP assay kit purchased from Cisbio. After dissolving the cells with lysis buffer in the kit according to the manufacturer's manual, anti-cAMP cryptate conjugate and cAMP-d2 in the kit were treated at room temperature for 2 hours. Thereafter, fluorescence was measured at 665 nm and 620 nm and compensated by a ratio of 665 nm/620 nm, and then, the concentration of cAMP in the cells was measured using a standard curve. Since activity of adenylyl cyclase was suppressed when the cannabinoid receptor 1 (CB1R) was activated, the cannabinoid receptor agonist according to the present invention suppresses production of cAMP in the cells. […] As illustrated in the following Table 1, it may be confirmed that the novel cannabinoid receptor agonists according to the present invention activate the cannabinoid receptor 1 (CB1R) when EC50 was 24 to 26 μM.

[2] = test system: RBL-2H3 cells (rat basophilic leukemia cells); experiment: Degranulation of mast cells activated by ionomycin; format: cell-based; conditions: FIG. 2(A) and (B)
Procedure: In order to confirm whether or not the ceramide derivative compound according to the present invention suppresses activation of the mast cells, RBL-2H3 cells (rat basophilic leukemia cells) corresponding to one kind of mast cells were cultured in a DMEM medium containing 10% FBS in a 24-well plate, and then treated with the compound for 16 hours. In order to induce degranulation of the mast cells, the cells were treated with 2 μM ionomycin (Sigma), and after 30 minutes, concentrations of β-hexosaminidase and histamine released to the medium were measured. In detail, at the time of measuring the concentration of β-hexosaminidase, 50 μl of the medium was reacted together with 50 μl of p-nitrophenyl-nacetyl-β-d-glucosaminidine, (p-NAG, Sigma) at 37° C. for 2 hours, and then, the reaction was terminated by adding 200 μl of 0.2 M glycine (pH 10.6, Sigma). Absorbance at a wavelength of 405 nm was measured using a spectrometer. The concentration of histamine was measured using a HTRF histamine assay kit (Cisbio). 10 μl of a medium supernatant of the cells was treated with anti-histamine cryptate conjugate and histamine-d2 according to the manufacturer's manual at room temperature for 2 hours. Thereafter, fluorescence was measured at 665 nm and 620 nm and compensated by a ratio of 665 nm/620 nm, and then, the concentration of histamine in the cells was measured using a standard curve. […]

[3] = test system: RBL-2H3 cells (rat basophilic leukemia cells); experiment: Degranulation of mast cells activated by IgE antibody and antigen; format: cell-based; conditions: FIG. 3(A) and (B)
Procedure: In order to confirm whether or not the ceramide derivative compound according to the present invention suppresses activities of the mast cells, RBL-2H3 cells (rat basophilic leukemia cells) corresponding to one kind of mast cells were cultured in a DMEM medium containing 10% FBS in a 24-well plate, and then treated with the compound for 16 hours. In order to induce degranulation of the mast cells, the cells were treated with IgE antibody (0.2 μg/ml) and NP-BSA (0.1 μg/ml) for 1 hour, and then, concentrations of β-hexosaminidase and histamine released to the medium were measured. In detail, at the time of measuring the concentration of β-hexosaminidase, 50 μl of the medium was reacted together with 50 μl of p-nitrophenyl-nacetyl-β-d-glucosaminidine, (p-NAG, Sigma) at 37° C. for 2 hours, and then, the reaction was terminated by adding 200 μl of 0.2 M glycine (pH 10.6, Sigma). Absorbance at a wavelength of 405 nm was measured using a spectrometer. The concentration of histamine was measured using a HTRF histamine assay kit (Cisbio). […] Thereafter, fluorescence was measured at 665 nm and 620 nm and compensated by a ratio of 665 nm/620 nm, and then, the concentration of histamine in the cells was measured using a standard curve.

[4] = test system: RBL-2H3 cells (rat basophilic leukemia cells); experiment: Histamine release of mast cells activated by PAR-2 agonist SLIGRL; format: cell-based; conditions: FIG. 4
Procedure: The PAR-2, which is a receptor activated by protease (tryptase, chymase, and the like) present outside cells, induces degranulation on surfaces of the mast cells. In order to confirm whether or not the ceramide derivative compound according to the present invention suppresses activities of the mast cells by PAR-2, RBL-2H3 cells (rat basophilic leukemia cells) corresponding to one kind of mast cells were cultured in a DMEM medium containing 10% FBS in a 24-well plate, and then treated with the compound for 2 hours. Thereafter, in order to induce degranulation of the mast cells, the cells were treated with 10 μM SLIGRL peptide, which is a PAR-2 agonist, for 1 hour. The concentration of histamine released outside the cells was measured using a HTRF histamine assay kit (Cisbio). 10 μl of a medium supernatant of the cells was treated with anti-histamine cryptate conjugate and histamine-d2 according to the manufacturer's manual at room temperature for 2 hours. Thereafter, fluorescence was measured at 665 nm and 620 nm and compensated by a ratio of 665 nm/620 nm, and then, the concentration of histamine in the cells was measured using a standard curve. […] Therefore, the novel ceramide derivative according to the present invention, which is the novel cannabinoid receptor agonist, is a compound effectively suppressing the activities of the mast cells.

[5] = test system: oxazolone-induced atopic dermatitis animal model; experiment: Oxazolone-induced atopic dermatitis animal model, skin thickness; format: in vivo, hairless mice; conditions: FIG. 7(A) and (B)
Procedure: (§1) In order to evaluate efficacy of the novel compound according to the present invention in an animal model, first, hairless mice were treated with oxazolone (Sigma), thereby establishing atopic dermatitis-like animal models. More specifically, on day 1, the mice were sensitized with 1% oxazolone in acetone on the back, and after 1 week, the mice were treated with 0.1% oxazolone in acetone on the back every other day for 2 weeks, thereby inducing atopic dermatitis-like symptoms. Thereafter, the compound (1%) according to the present invention was dissolved in a solution in which polyethylene glycol (PEG, Sigma) and ethanol were mixed with each other at a ratio of 7:3, and the mice were treated with the obtained compound solution on the back once in the morning and evening for 10 days. […] In addition, a skin thickness of each of the animal models was measured and illustrated by a graph. […] Therefore, the compound according to the present invention may be effective to treat atopic dermatitis.

[6] = test system: oxazolone-induced atopic dermatitis animal model; experiment: IgE and histamine in blood in atopic dermatitis animal model; format: in vivo, hairless mice; conditions: for concentration of IgE antibody in the blood: FIG. 8(A); for concentration of histamine in the blood: FIG. 8(B)
Procedure: as §1
In order to evaluate efficacy of the novel compound according to the present invention in an atopic dermatitis animal model, after treating an oxazolone (Sigma)-induced atopic dermatitis animal model with the compound, concentrations of IgE antibody and histamine present in the blood were measured. The IgE and histamine in the blood are known as markers of atopic dermatitis and inflammatory dermatitis such as contact dermatitis, and as the disease aggregates, the concentrations thereof in the blood further increases. The increased IgE activated mast cells, and allowed the mast cells to release a large amount of inflammatory cytokines such as histamine.

[7] = test system: oxazolone-induced atopic dermatitis animal model; experiment: Mast cells in skin of atopic dermatitis animal model (toluidine blue staining); format: in vivo, hairless mice; conditions: FIG. 9
Procedure: In order to evaluate whether or not the novel compound according to the present invention suppresses the activities of mast cells in an atopic dermatitis animal model, first, hairless mice were treated with oxazolone (Sigma), thereby establishing an atopic dermatitis animal model. More specifically, on day 1, mice were sensitized with 1% oxazolone in acetone on the back, and after 1 week, the mice were treated with 0.1% oxazolone in acetone on the back every other day for 2 weeks, thereby inducing atopic dermatitis on the back skin of the mice. Thereafter, the compound (1%) according to the present invention was dissolved in a solution in which polyethylene glycol (PEG, Sigma) and ethanol were mixed with each other at a ratio of 7:3, and the mice were treated with the obtained compound solution on the back once in the morning and evening for 10 days. Then, skin biopsy was taken and stained with toluidine blue solution (Sigma), thereby confirming presence of mast cells. […] The mast cells in the skin as described above release various kinds of inflammatory cytokines, thereby aggregating atopic dermatitis. […] The number of mast cells present on the skin in each of the groups was statistically analyzed and illustrated by a graph. […]

T1 sequence (P21554 whole entry): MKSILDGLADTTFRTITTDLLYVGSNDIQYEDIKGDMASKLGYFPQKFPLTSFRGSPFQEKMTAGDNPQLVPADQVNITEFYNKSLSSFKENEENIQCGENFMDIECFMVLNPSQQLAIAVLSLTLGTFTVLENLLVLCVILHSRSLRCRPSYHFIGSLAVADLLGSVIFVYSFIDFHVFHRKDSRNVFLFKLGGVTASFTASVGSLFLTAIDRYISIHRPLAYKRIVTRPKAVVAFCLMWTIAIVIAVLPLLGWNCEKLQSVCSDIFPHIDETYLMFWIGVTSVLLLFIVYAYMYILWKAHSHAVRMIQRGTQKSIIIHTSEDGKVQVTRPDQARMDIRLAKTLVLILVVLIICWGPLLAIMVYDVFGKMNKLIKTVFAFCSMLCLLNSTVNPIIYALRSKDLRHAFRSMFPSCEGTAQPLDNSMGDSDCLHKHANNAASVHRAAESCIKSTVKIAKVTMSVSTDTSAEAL

SMILES | concentration of cAMP [1] | Modulation [1] | activation of mast cells by ionomycin [2] | activation of the mast cells by IgE antibody and antigen [3] | activation of mast cells by protease activated receptor 2 (PAR-2) [4] | skin damage [5] | concentration of IgE antibody in the blood [6] | concentration of histamine in the blood [6] | invasion of mast cells in a lesion site [7]
CCCCCCCC/C=C\CCCCCCCC(=O)C(CCCCCC/C=C\CCCCCCCC)C(=O)NCCO (stereo not drawn) [CBS004, (11Z)-2-((Z)-hexadec-7-enyl)-N-(2-hydroxyethyl)-3-oxoicos-11-enamide] | decreased dependently on the concentration of the compound | Agonist | suppression effects | suppression effects | suppression effects | repair effects | decrease effects | decrease effects | suppressed
CCCCCCCC/C=C\CCCCCCCC(=O)C(CCCCCC/C=C\CCCCCCCC)C(=O)NC(CO)CO (stereo not drawn) [CBS007, (11Z)-2-((Z)-hexadec-7-enyl)-N-(1,3-dihydroxypropan-2-yl)-3-oxoicos-11-enamide] | decreased dependently on the concentration of the compound | Agonist | suppression effects | suppression effects | suppression effects | repair effects | decrease effects | decrease effects | suppressed

From US9796665B2 (priority 2013, dated 2017)
